The target in data set [1] is T1, Prolyl endopeptidase (Sus scrofa, UniProt P23687). In words: Inhibitory activity against prolyl oligopeptidase of porcine brain homogenate.
Data set [2] deals with T1, Prolyl endopeptidase. In words: Inhibitory activity against purified porcine prolyl oligopeptidase.
Data set [3] is described as follows: Partition coefficient (logP) determined in a 1-octanol-phosphate buffer system. The class given is physicochemical.

pIC50, pKi: −log10 of the molar value.

T1 sequence (P23687 whole entry): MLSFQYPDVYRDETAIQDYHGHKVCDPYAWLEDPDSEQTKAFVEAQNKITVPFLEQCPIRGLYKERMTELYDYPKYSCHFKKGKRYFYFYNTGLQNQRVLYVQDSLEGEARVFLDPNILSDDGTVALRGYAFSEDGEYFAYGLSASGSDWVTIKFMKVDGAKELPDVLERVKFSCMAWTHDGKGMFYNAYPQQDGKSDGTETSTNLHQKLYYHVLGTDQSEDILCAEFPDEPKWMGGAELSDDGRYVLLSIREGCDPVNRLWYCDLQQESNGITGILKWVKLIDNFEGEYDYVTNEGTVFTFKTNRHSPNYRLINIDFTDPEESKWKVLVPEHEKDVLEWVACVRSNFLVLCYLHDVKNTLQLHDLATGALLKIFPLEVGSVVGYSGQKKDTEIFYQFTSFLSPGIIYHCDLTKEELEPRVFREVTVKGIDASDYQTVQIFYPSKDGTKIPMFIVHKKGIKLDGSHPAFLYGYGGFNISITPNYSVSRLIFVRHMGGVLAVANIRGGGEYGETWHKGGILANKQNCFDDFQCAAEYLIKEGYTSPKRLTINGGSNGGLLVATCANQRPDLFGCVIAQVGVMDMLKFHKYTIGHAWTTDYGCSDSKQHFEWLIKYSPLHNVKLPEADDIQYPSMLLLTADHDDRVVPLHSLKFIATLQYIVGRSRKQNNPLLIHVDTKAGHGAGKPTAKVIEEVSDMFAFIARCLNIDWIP

A word on the pIC50: it is the IC50 on a negative log10 scale, so that one unit is a factor of ten. Read a low pIC50 as a large IC50. For orientation: pKi means −log10 of the Ki, conventionally taken in molar units. In general, logP refers to a log measure of how a compound divides between an organic and an aqueous phase. Low values mean a more hydrophilic compound, high ones a more lipophilic compound. `N#C[C@@H]1CCCN1C(=O)[C@@H]1CCC=C1C(=O)CCCc1ccccc1` had a pIC50 at Prolyl endopeptidase [1] of 9.70. Also, the pKi at Prolyl endopeptidase [2] was 10.52. The same compound came in with a logP in data set [3] of 2.4.

Turning to `O=C(NCc1ccccc1)C1=C(C(=O)N2CCCC2)CCC1`, on Prolyl endopeptidase [1], the pIC50 is 6.64.

`N#C[C@@H]1CCCN1C(=O)[C@@H]1CCCN1C(=O)CCCc1ccccc1`: in data set [3], the logP was 1.6. `O=C([C@@H]1CCCN1C(=O)CCCc1ccccc1)N1CCCC1` registered a logP in data set [3] of 1.8.

The compound `O=C(NCc1ccccc1)C1=CCC[C@@H]1C(=O)N1CCC[C@H]1C(=O)CO` showed a negative-log IC50 (pIC50) against Prolyl endopeptidase [1] of 7.28. `N#C[C@@H]1CCCN1C(=O)[C@H]1CCC=C1C(=O)CCCc1ccccc1`: the pIC50 against Prolyl endopeptidase [1] was 8.30. In turn, `O=C(NCc1ccccc1)C1=CCC[C@H]1C(=O)N1CCC[C@H]1C(=O)CO` gave a pIC50 on Prolyl endopeptidase [1] of 9.52. Besides, the pKi on Prolyl endopeptidase [2] was 9.82. The logP in data set [3] came out at 0.6. The compound `O=C(CO)[C@@H]1CCCN1C(=O)[C@@H]1CCCN1C(=O)NCc1ccccc1` gave a pIC50 against Prolyl endopeptidase [1] of 9.70. Moreover, the pKi on Prolyl endopeptidase [2] is 10.22. The logP in data set [3] turned out to be 0.2.

The values are drawn from ChEMBL document CHEMBL1138806, “A cyclopent-2-enecarbonyl group mimics proline at the P2 position of prolyl oligopeptidase inhibitors” (J Med Chem, 2004).
